Experiments:
Human erythrocytes = assay: hemotoxicity determination (hemolytic activity); type: cell-based
Method in brief: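 Human erythrocytes (2×10^7/ml in saline) were incubated with serially diluted compound for 30 min at 37 °C and then centrifuged. Released haemoglobin was read at A540 against a 0.1% Triton X-100 full-lysis control. EH50 is the interpolated concentration giving 50% of the control A540.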

[1] = system: Candida albicans clinical strain Gu5 (CaCdr1p, CaCdr2p); assay: antifungal activity against MDR fungal strains and parents; type: cell-based; conditions: C. albicans Gu5 (CaCdr1p, CaCdr2p), fluconazole-resistant
Method: (§1) For the determination of antifungal activity in vitro we used method of serial dilution in buffered medium RPMI 1640, pH 7.0, in a 96-wells microplates, according to the standard procedure (National Committee for Clinical Laboratory Standards. Reference method for broth dilution antifungal susceptibility testing of yeast, approved standard, 2nd ed. M27-A2 vol. 22 Wayne, Pa., 2002). The optical density of cells suspension was measured using a microplates reader (Victor^3, Perkin-Elmer) at the wavelength λ=531 nm (A531). On the basis of obtained results the diagrams of relation between A531 values and concentration of examined compound were made.

[2] = system: Candida albicans strain STY31; assay: as above; type: cell-based; conditions: C. albicans STY31, 5674 derivative, deletion of CDR1 and CDR2
Method: as §1

[3] = system: Candida albicans clinical strain B3; assay: as above; type: cell-based; conditions: C. albicans B3, fluconazole sensitive, parent strain for B4
Method: as §1

[4] = system: Candida albicans clinical strain Gu4; assay: as above; type: cell-based; conditions: C. albicans Gu4, fluconazole sensitive, parent strain for Gu5
Method: as §1

[5] = system: Candida albicans strain STY7 (CaCdr1p); assay: as above; type: cell-based; conditions: C. albicans STY7 (CaCdr1p), 5674 derivative, deletion of CDR2
Method: as §1

[6] = system: Candida albicans clinical strain F5 (CaMdr1p); assay: as above; type: cell-based; conditions: C. albicans F5 (CaMdr1p), fluconazole-resistant
Method: as §1

[7] = system: Candida albicans clinical strain B4 (CaMdr1p); assay: as above; type: cell-based; conditions: C. albicans B4 (CaMdr1p), fluconazole-resistant
Method: as §1

[8] = system: Candida albicans clinical strain F2; assay: as above; type: cell-based; conditions: C. albicans F2, fluconazole sensitive, parent strain for F5
Method: as §1

[9] = system: Candida albicans strain 5674 (CaCdr1p, CaCdr2p); assay: as above; type: cell-based; conditions: C. albicans 5674 (CaCdr1p, CaCdr2p)
Method: as §1

LLC-PK1 cells = assay: cytotoxic activity against mammalian cells in tissue culture (MTT); type: cell-based, pig
Method: (§2) All media contained 100 μg/ml of penicillin G and streptomycin. 24-wells microplates containing appropriate medium were inoculated with the cells in amount of 1.2×10^4 cells/well and allowed to stand overnight. Next, tested compounds as solution in dimethylsulfoxide (DMSO) were added in volume of 10 μl (serial 2× dilutions). To control well 10 μl of DMSO was added. Microplates with cell suspensions were incubated for 120 h at temperature 37° C. at atmosphere of 95%/5% CO2. After incubation, to all wells 200 μl of solution of 3-(4,5-dimethyltiazole-2-yl)-2,5-diphenylotetrazole bromide (MTT) in PBS (4 mg/ml) was added and plates were further incubated for 4 h at 37° C. Next, to dissolve crystals of formazane 1 ml of DMSO was added and absorption of solutions was measured at the wavelength λ=540 nm (A540), using a microplates reader (Victor^3, Perkin-Wallac). […] From these graphs IC50 values were read, that is concentration of tested compound in the presence at which A540 value is half of A540 value measured in the control sample.

[10] = system: Candida lusitaniae DSM 70102; assay: antifungal activity in vitro, serial dilution in RPMI 1640; type: cell-based
Method in brief: (§3)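 Broth microdilution, RPMI 1640 buffered pH 7.0, M27-A2 protocol; read-out OD531; A531 vs concentration curves.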

Candida krusei DSM 6128 = assay: as above; type: cell-based
Method in brief: as §3

[11] = system: Candida tropicalis KKP 334; assay: as above; type: cell-based
Method in brief: as §3

[12] = system: Candida glabrata DSM 11226; assay: as above; type: cell-based
Method in brief: as §3

[13] = system: Saccharomyces cerevisiae ATCC 9763; assay: as above; type: cell-based; conditions: RPMI 1640, pH 7.0; for Antifungal activity IC50: Saccharomyces cerevisiae ATCC 9763 (first head over MIC and IC50); for Antifungal activity MIC: Saccharomyces cerevisiae ATCC 9763
Method in brief: as §3

[14] = system: Candida albicans ATCC 10231; assay: as above; type: cell-based
Method in brief: as §3

[15] = system: Candida pseudotropicalis KKP 324; assay: antifungal activity in vitro, broader spectrum; type: cell-based
Method: as §1
(§4) Obtained results are presented below in tables 2A and 2B.

[16] = system: Candida stellatoidea CBS 1905; assay: antifungal activity in vitro, broader spectrum; type: cell-based
Method: as §1, §4

[17] = system: Candida dubliniensis CBS 7987; assay: antifungal activity in vitro, broader spectrum; type: cell-based
Method: as §1, §4

[18] = system: Trichoderma viride LOCK E159; assay: antifungal activity in vitro, broader spectrum; type: cell-based
Method: as §1, §4

[19] = system: Aspergillus niger LOCK E201; assay: antifungal activity in vitro, broader spectrum; type: cell-based
Method: as §1, §4

Candida arborea KKP 319 = assay: antifungal activity in vitro, broader spectrum; type: cell-based
Method: as §1, §4

[20] = system: Candida lipolytica KKP 322; assay: antifungal activity in vitro, broader spectrum; type: cell-based
Method: as §1, §4

Candida albicans SC 5314 = assay: antifungal activity in vitro, broader spectrum; type: cell-based
Method: as §1, §4

[21] = system: Candida parapsilosis DSM 5784; assay: antifungal activity in vitro, broader spectrum; type: cell-based
Method: as §1, §4

[22] = system: Candida quilliermondii DSM 11947; assay: antifungal activity in vitro, broader spectrum; type: cell-based
Method: as §1, §4

HepG2 cells = assay: cytotoxic activity against mammalian cells in tissue culture (MTT); type: cell-based, human
Method: as §2

CCRF-CEM cells = assay: as above; type: cell-based, human
Method: as §2

Row | Compound | Hemotoxi EH50 (Human erythrocytes) | Antifungal activity MIC [1] | Antifungal activity MIC [2] | Antifungal activity MIC [3] | Antifungal activity MIC [4] | Antifungal activity MIC [5] | Antifungal activity MIC [6] | Antifungal activity MIC [7] | Antifungal activity MIC [8] | Antifungal activity MIC [9] | IC50 (cytotoxic activity) (LLC-PK1 cells) | Antifungal activity MIC [10] | Antifungal activity MIC (Candida krusei DSM 6128) | Antifungal activity MIC [11] | Antifungal activity MIC [12] | Antifungal activity IC50 [13] | Antifungal activity MIC [13] | Antifungal activity MIC [14] | Antifungal activity MIC [15] | Antifungal activity MIC [16] | other results
1 | C[C@@H]1[C@H](O)[C@@H](C)/C=C/C=C/C=C/C=C/C=C/C=C/C=C/[C@H](O[C@@H]2O[C@H](C)[C@@H](O)[C@H](NC(=O)[C@H](N)c3ccccc3)[C@@H]2O)C[C@@H]2O[C@](O)(C[C@@H](O)C[C@@H](O)[C@H](O)CC[C@@H](O)C[C@@H](O)CC(=O)O[C@H]1C)C[C@H](O)[C@H]2C(=O)O [Compound A41, N-D-phenylglycylamphotericin B] | >100 µg/mL | 1 µg/mL | 1 µg/mL | 1 µg/mL | 1 µg/mL | 1 µg/mL | 4 µg/mL | 1 µg/mL | 2 µg/mL | 1 µg/mL | >100 µg/mL | 2 µg/mL | 4 µg/mL | 4 µg/mL | 4 µg/mL | 1.46 µg/mL | 4 µg/mL | 2 µg/mL | 2 µg/mL | 2 µg/mL | Antifungal activity MIC [17]: 1 µg/mL; Antifungal activity MIC [18]: 4 µg/mL; Antifungal activity MIC [19]: 2 µg/mL; Antifungal activity MIC (Candida arborea KKP 319): 4 µg/mL; Antifungal activity MIC [20]: 2 µg/mL; Antifungal activity MIC (Candida albicans SC 5314): 1 µg/mL; Antifungal activity MIC [21]: 2 µg/mL; Antifungal activity MIC [22]: 1 µg/mL; IC50 (cytotoxic activity) (HepG2 cells): >100 µg/mL; IC50 (cytotoxic activity) (CCRF-CEM cells): >100 µg/mL
2 | C[C@@H]1[C@H](O)[C@@H](C)/C=C/C=C/C=C/C=C/C=C/C=C/C=C/[C@H](O[C@@H]2O[C@H](C)[C@@H](O)[C@H](NC(=O)[C@H](N)Cc3cccnc3)[C@@H]2O)C[C@@H]2O[C@](O)(C[C@@H](O)C[C@@H](O)[C@H](O)CC[C@@H](O)C[C@@H](O)CC(=O)O[C@H]1C)C[C@H](O)[C@H]2C(=O)O [Compound A36, N-D-β-(pyridin-3-yl)alanylamphotericin B] | >100 µg/mL | 4 µg/mL | 0.25 µg/mL | 0.5 µg/mL | 1 µg/mL | 0.5 µg/mL | 4 µg/mL | 4 µg/mL | 4 µg/mL | 0.5 µg/mL | >100 µg/mL | 2 µg/mL | 4 µg/mL | 2 µg/mL | 4 µg/mL | 0.53 µg/mL | 1 µg/mL | 2 µg/mL | 1 µg/mL | 2 µg/mL | Antifungal activity MIC [17]: 1 µg/mL; Antifungal activity MIC [18]: 4 µg/mL; Antifungal activity MIC [19]: 0.5 µg/mL; Antifungal activity MIC (Candida arborea KKP 319): 4 µg/mL; Antifungal activity MIC [20]: 2 µg/mL; Antifungal activity MIC (Candida albicans SC 5314): 1 µg/mL; Antifungal activity MIC [21]: 2 µg/mL; Antifungal activity MIC [22]: 1 µg/mL; IC50 (cytotoxic activity) (HepG2 cells): >100 µg/mL; IC50 (cytotoxic activity) (CCRF-CEM cells): >100 µg/mL
3 | C[C@@H]1[C@H](O)[C@@H](C)/C=C/C=C/C=C/C=C/C=C/C=C/C=C/[C@H](O[C@@H]2O[C@H](C)[C@@H](O)[C@H](NC(=S)NCCN3CCCCC3)[C@@H]2O)C[C@@H]2O[C@](O)(C[C@@H](O)C[C@@H](O)[C@H](O)CC[C@@H](O)C[C@@H](O)CC(=O)O[C@H]1C)C[C@H](O)[C@H]2C(=O)O [Compound A22, N-{[3-(2-piperidin-1-yl)ethyl]thioureidyl}amphotericin B] | >100 µg/mL | 2 µg/mL | 2 µg/mL | 0.25 µg/mL | 0.25 µg/mL | 2 µg/mL | 8 µg/mL | 4 µg/mL | 4 µg/mL | 1 µg/mL | >100 µg/mL | 1 µg/mL | 2 µg/mL | 1 µg/mL | 4 µg/mL | 0.71 µg/mL | 1 µg/mL | 1 µg/mL | 2 µg/mL | 1 µg/mL | Antifungal activity MIC [17]: 1 µg/mL; Antifungal activity MIC [18]: 2 µg/mL; Antifungal activity MIC [19]: 2 µg/mL; Antifungal activity MIC (Candida arborea KKP 319): 2 µg/mL; Antifungal activity MIC [20]: 1 µg/mL; Antifungal activity MIC (Candida albicans SC 5314): 2 µg/mL; Antifungal activity MIC [21]: 2 µg/mL; Antifungal activity MIC [22]: 1 µg/mL; IC50 (cytotoxic activity) (HepG2 cells): >100 µg/mL; IC50 (cytotoxic activity) (CCRF-CEM cells): >100 µg/mL
